Measured values: patent publication US20240245696A1, “INHIBITORS OF DNA PK AND USES THEREOF” (BioVentures, LLC, priority 2017, published 2024)
Entries after “also recorded” stand apart in the source; their conditions may differ.

Assays:
IL-2 = test: Secreted IL-2 ELISA, Jurkat cells stimulated with PMA+PHA; format: cell-based, human; conditions: for level of IL-2: PMA+PHA 24 hour stimulation
Procedure: Cell Culture: Human peripheral blood mononuclear cells (PBMC,) and Jurkat cells were purchased from ATCC (PCS-800-011, Manassas, VA). Cells were maintained at 37° C. in a humidified atmosphere composed of 5% CO2. Jurkat cells were cultured in RPMI 1640 medium which was supplemented with 10% FCS and human PBMC was cultured in RPMI 1640 medium which was supplemented with 10% FCS and pen/strep. […] The NU7441 DNA-PKcs inhibitor was added at varying concentrations at the time of stimulation.
Detection of secreted IL-2: Secreted IL-2 was detected by Human IL-2 ELISA Kit from Thermo Scientific (Waltham, MA). The manufacturer's protocol was followed. […] Jurkat cells stimulated with the anti-CD28/CD3 dynabeads were done so according to the manufacturer's protocol at a 1:1 ratio for 24 hours prior to harvesting. After stimulation, supernatant samples of Jurkat cells or PBMCs (2 million cells/mL) were collected and diluted 10 times before the assay. IL-2 standards and samples (50 μL) and Biotinylated antibody reagents (50 μL) were added to each well and the plate was incubated for 3 hours at room temperature. The plate was washed 3 times and 100 μL of Streptavidin-HRP solution was added. After 30 minutes of incubation at room temperature, the plate was washed 3 times. TMB substrate (100 μL) was added and incubated for 30 minutes in the dark at room temperature. Stop solution was added and the absorbance of each well was read at 450 nm using the plate reader.

calcineurin = test: Calcineurin Cellular Activity Assay in Jurkat cell lysates; format: cell-based, human; conditions: Jurkat activated with PMA+PHA, NU7441 2.5 µM
Description: Detection of calcineurin and mTOR activities: Calcineurin phosphatase activity was detected by Calcineurin Cellular Activity Assay Kit from Millipore (Billerica, MA) and mTOR signaling was detected by Calcium Detection Kit from Abcam (Cambridge, MA). The manufacturer's protocols were followed. Briefly, Jurkat cells (2 million cells/mL) were lysed using lysis buffer. For calcineurin activity, the cell lysates were desalted by gel filtration to remove free phosphates before the assay and were subjected to calcineurin activity assay. The absorbance of each sample was read at 620 nm using the plate reader. For mTOR ELISA assay, the cell lysates were added to each well and antibody against phosphorylated mTOR at serine 2448 was used to detect the activity of mTOR signaling. The absorbance of each sample was read at 450 nm using the plate reader.

DNA-PKcs [1] = target: T1, DNA-PKcs (Homo sapiens, UniProt P78527); conditions: reference [24]; cited from earlier work
DNA-PKcs [2] = target: T1, DNA-PKcs; test: Western blot of phosphorylated DNA-PKcs (s2056) in activated Jurkat cells; format: cell-based; design: host or cells: Jurkat cells; conditions: Jurkat activated with PMA+PHA
Procedure: Cell Culture: Human peripheral blood mononuclear cells (PBMC,) and Jurkat cells were purchased from ATCC (PCS-800-011, Manassas, VA). Cells were maintained at 37° C. in a humidified atmosphere composed of 5% CO2. […] Both Jurkat cells and PBMC were stimulated with PHA (50 ng/mL) and PMA (1 μg/mL) for 24 hours prior to harvesting for IL-2 detection or 6 hours prior for western blot analysis. The NU7441 DNA-PKcs inhibitor was added at varying concentrations at the time of stimulation.
Cell lysis and nuclear extract: Cells were washed with cold PBS twice and centrifuged at 5000 rpm for 5 minutes. For the nuclear extract, pellets were suspended with 800 μL of 10 mN HEPES lysis buffer (10 mM HEPES at pH 7.9, 10 mM KCl, 1 mM DTT, and 1× protease and phosphatase inhibitor) and incubated on ice for 15 minutes. 50 μL of NP-40 (10% in water) was added and the pellets were mixed for 10 seconds. Lysates were centrifuged for 5 minutes at 4° C. at 13,000 rpm. The supernatant solution which is containing the cytosolic fraction was discarded and the pellets were resuspended in 20 mM HEPES lysis buffer (20 mM HEPES at pH 7.9, 0.4 M NaCl, 1 mM DTT, and 1× protease, and phosphatase inhibitor) and incubated on ice for 15 minutes with intermittent mixing. Lysates were centrifuged for 10 minutes at 4° C. at 13,000 rpm. […]

## O=c1cc(N2CCOCC2)oc2c(-c3cccc4c3sc3ccccc34)cccc12 [NU7441]
IL-2; PMA (50 ng/ml)+PHA (1 μg/mL), 24 hours, concentration not stated (FIG. 1B)
  IL-2 secretion: significantly blocked IL-2 secretion
IL-2; 2.5 µM NU7441
  level of IL-2: significantly decreased
IL-2; 5 μM NU7441
  level of IL-2: further decreased
calcineurin
  calcineurin phosphatase activity: significantly inhibited; also recorded: significant reduction in calcineurin activity
DNA-PKcs [1]
  inhibition of DNA-PKcs: potent and specific inhibitor
  interference with ATR or ATM activation: does not interfere
DNA-PKcs [2]
  DNA-PKcs phosphorylation (s2056): effectively inhibited DNA-PKcs phosphorylation
DNA-PKcs [2]; listed as NU744
  DNA-PKcs phosphorylation (s2056): reduced
